These are literature values, as cited in publication PMC3865603 (Cancer chemotherapy and pharmacology, 2011).

The conditions of data set [1]: cited from earlier work.
Data set [2] concerns patients. Particulars: cited from earlier work.
Data set [3] concerns tubulin in PBMCs. The note with it: ixabepilone RP2D 40 mg/m^2, 1 h after infusion, n = 27; cited from earlier work.

For the compound `C/C1=C/C[C@@H](/C(C)=C/c2csc(C)n2)OC(=O)C[C@H](O)C(C)(C)C(=O)[C@H](C)[C@@H](O)[C@@H](C)CCC1` [KOS-862, Desoxyepothilone B], in data set [1], the “in vivo activity relative to other epothilones” value is “greater activity compared with ixabepilone and patupilone”. Also, the “neurotoxicity in phase II trials” value in data set [2] was “significant neurotoxicity”.

`C=CC[C@H]1C(=O)C(C)(C)[C@@H](O)CC(=O)O[C@H](c2ccc3sc(C)nc3c2)C[C@@H]2O[C@]2(C)CCC[C@H](C)[C@@H]1O` [sagopilone]: in data set [2], the DLTs entry is “peripheral neuropathy, infection, hyponatremia, diarrhea, and central ataxia”. For the compound `C/C(=C\c1csc(C)n1)[C@@H]1C[C@@H]2O[C@]2(C)CCC[C@H](C)[C@H](O)[C@@H](C)C(=O)C(C)(C)[C@@H](O)CC(=O)O1` [patupilone], the DLTs entry in data set [2] was “diarrhea, peripheral neuropathy, and fatigue”.

Turning to `C/C(=C\c1csc(C)n1)[C@@H]1C[C@@H]2O[C@]2(C)CCC[C@H](C)[C@H](O)[C@@H](C)C(=O)C(C)(C)[C@@H](O)CC(=O)N1` [Ixabepilone, ixabepilone], the DLTs result in data set [2] was “neutropenia, neuropathy, and abdominal pain/nausea”. In addition, the “mean MBF” value in data set [3] is on record as 63%.
